Data reported in patent publication US20250235545A1, “POLYPEPTIDE CONJUGATE AND USE THEREOF” (SHANGHAI CHIXI BIOMEDICAL TECHNOLOGY CO., LTD, priority 2024, published 2025).
In brackets after ≈: the same amount, converted by molar mass. Read-outs that look alike come from different tables or passages of the source. Where a SMILES comes first, the peptide text is derived from it. The star is where a group is joined. NEt(2-(20S-CPT-7-yl)ethyl) = CCN(CCc1c2c(nc3ccccc13)-c1cc3c(c(=O)n1C2)COC(=O)[C@]3(O)CC)*; Belotecan = CC[C@@]1(O)C(=O)OCc2c1cc1n(c2=O)Cc2c-1nc1ccccc1c2CCN(C(C)C)*; X6 = CCCCCN(CCc1c2c(nc3ccccc13)-c1cc3c(c(=O)n1C2)COC(=O)[C@]3(O)CC)*; Propanoyl(3-maleimido) = O=C1C=CC(=O)N1CCC(=O)*; PEG6 = NCCOCCOCCOCCOCCOCCOCCC(=O)O

Legend:
[1] = tested on: sarcoma SJSA-1 tumor model; details: Table 2
Method in brief: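 Female BALB/c nude mice (6-8 weeks) bearing subcutaneous right-chest SJSA-1 xenografts from 2×10^7 cells were randomized, three per group, once tumors reached at least 100 mm^3. Treatment given once a week for three weeks starting day 1; saline controls.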

[2] = Tumor homogenate activation efficiency, sarcoma tissue (Examples 28, 37); assay type: in vitro ADME; details: pH 5.0, 37° C., 2 h; Table 5
Protocol: (§1) Buffer preparation: 50 mM PH buffer (MES), 250 mM NaCl, pH adjusted to 5.0 with 0.5 M of sodium hydroxide.
(§2) The polypeptide conjugate was prepared into a 1 mg/ml solution with pH 5.0 buffer, 100 μg of tumor tissue homogenate was added, (the tumor tissue homogenate was the homogenate of tumor tissues prepared with a Jingxin F6/10 handheld homogenizer), and the solution was placed at 37° C. for 2 h. The tumor tissue homogenate could effectively activate the polypeptide conjugate and release Belotecan, and the activation efficiencies of the drugs in tumor tissues were compared by high-performance liquid chromatography (HPLC) allowing determination of a decrease in the compounds and an increase in Belotecan:
(§3) Release percentage=peak area of Belotecan/total peak area of Belotecan and all other Belotecan-containing compounds
(§4) The polypeptide conjugate was prepared into a 1 mg/ml solution with pH 5.0 buffer, 100 μg of tumor tissue homogenate was added, (the tumor tissue homogenate was the homogenate of tumor tissues prepared with a Jingxin F6/10 handheld homogenizer), and the solution was placed at 37° C. for 2 h. The tumor tissue homogenate could effectively activate the polypeptide conjugate and release Belotecan, and the activation efficiencies of the drugs in tumor tissues were compared by HPLC allowing determination of a decrease in the compounds and an increase in Belotecan: […]

[3] = Tumor homogenate activation efficiency, ovarian cancer tissue (Examples 28, 37); assay type: in vitro ADME; details: pH 5.0, 37° C., 2 h; Table 5
Protocol: as §1, §2, §3, §4

[4] = tested on: colo320 colorectal cancer tumor model
Method in brief: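 Dosing was once a week for four weeks, with saline as control, in randomized groups of three mice. Groups were formed after subcutaneous colo320 xenografts (7.5×10^6 cells, right chest) grew to ≥120 mm^3 in female 6–8-week-old BALB/c nude mice.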

[5] = tested on: A2780 ovarian cancer tumor model; test: Efficacy in animal model of A2780 ovarian cancer, 30 mg/kg once a week for two weeks (Example 41); assay type: in vivo, BALB/c mice
Protocol: Test objective: To further compare the antitumor efficacy of different polypeptide Linkers in an animal tumor model of A2780 ovarian cancer.
(§5) Test drug: Polypeptide conjugate and normal saline control group.
8×10^6 corresponding cells were injected into right axillas of nude mice subcutaneously. […] The negative control group was administered normal saline. Administration was performed once a week for two weeks.

[6] = tested on: sarcoma SJSA-1 tumor model; test: Efficacy in animal model of sarcoma SJSA-1, 30 mg/kg once a week for two weeks (Example 40); assay type: in vivo, BALB/c mice; details: 30 mg/kg once a week for two weeks
Protocol: Test objective: To further compare the antitumor efficacy of different polypeptide Linkers in an animal tumor model of sarcoma SJSA-1.
as §5
The control group was administered normal saline. Administration was performed once a week for two weeks.

[7] = Tumor homogenate activation efficiency, small cell lung cancer tissue (Example 28); assay type: in vitro ADME; details: pH 5.0, 37° C., 2 h; Table 5
Protocol: as §1, §2, §3

[8] = Tumor homogenate activation efficiency, breast cancer tissue (Examples 28, 37); assay type: in vitro ADME; details: pH 5.0, 37° C., 2 h; Table 5
Protocol: as §1, §2, §3, §4

[9] = MTD determination in mice (Examples 27, 36, 44); assay type: in vivo; details: female, mouse, in vivo; mice, monitored for 14 d; Table 4
Source text: Test animals: 6-8 weeks old mice, all female; mice were grouped randomly, with six mice in each group, administered with drugs at different concentration gradients separately and monitored for 14 d. A mouse was euthanized at a loss of 20% of its initial weight and deemed to have died of poisoning.

[10] = Homogenate activation efficiency, heart tissue (Examples 28, 37); assay type: in vitro ADME; details: pH 5.0, 37° C., 2 h; Table 5
[11] = Tumor homogenate activation efficiency, non-small cell lung cancer tissue (Examples 28, 37); assay type: in vitro ADME; details: pH 5.0, 37° C., 2 h; Table 5
Protocol: as §1, §2, §3, §4

[12] = tested on: A549 (non-small cell lung cancer); test: cells; assay type: cell-based; details: CCK8, 48 h; Table 1
Method in brief: (§6)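 Following a 48 h drug exposure of 5,000 seeded cells per well, wells received CCK8 and, after about 2 h incubation, optical density at 450 nm was recorded. IC50 values were computed from survival rates versus solvent-only wells.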

A2780 (ovarian cancer) = test: cells; assay type: cell-based; details: CCK8, 48 h; Table 1
Method in brief: as §6

[13] = tested on: SKBR3 (breast cancer tissue); test: cells; assay type: cell-based; details: CCK8, 48 h; Table 1
Method in brief: as §6

SJSA-1 (sarcoma tissue) = test: cells; assay type: cell-based; details: CCK8, 48 h; Table 1
Method in brief: as §6

[14] = 15 mg/kg once a week for three weeks
[15] = 45 mg/kg once a week for three weeks
[16] = 15 mg/kg once a week for four weeks, Table 3
[17] = 45 mg/kg once a week for four weeks, Table 3
[18] = Table 13 (Example 42), dose 45 mg/kg, once a week for four weeks, BALB/c mice
[19] = Table 14 (Example 43), dose 45 mg/kg, once a week for four weeks, BALB/c mice

Compound	Mouse weight (%) [1, 14]	SJSA-1 (sarcoma tissue) mean tumor volume (mm^3) [1, 14] [mm^3]	SJSA-1 (sarcoma) Growth rate (%) [1, 14] [%]	Mouse weight (%) [1, 15]	SJSA-1 (sarcoma tissue) mean tumor volume (mm^3) [1, 15] [mm^3]	SJSA-1 (sarcoma) Growth rate (%) [1, 15] [%]	Percentage of release efficiency (%) Sarcoma tissue (SJSA1) [2] [%]	Percentage of release efficiency (%) Ovarian cancer tissue (A2780) [3] [%]	Mouse weight (%) [4, 16]	colo320 (colorectal cancer cell) growth rate (%) [4, 16] [%]	colo320 (colorectal cancer cell) mean tumor volume (mm^3) [4, 16] [mm^3]	Mouse weight (%) [4, 17]	colo320 (colorectal cancer cell) growth rate (%) [4, 17] [%]	colo320 (colorectal cancer cell) mean tumor volume (mm^3) [4, 17] [mm^3]	Percentage of release efficiency (%) Small cell lung cancer tissue (NCI-H841) [7] [%]	Percentage of release efficiency (%) Breast cancer tissue (SKBR3) [8] [%]	MTD at 14 d [9] [mg/kg]	Percentage of release efficiency (%) Heart tissue [10] [%]	Percentage of release efficiency (%) Non-small cell lung cancer tissue (A549) [11] [%]	IC50 A549 (non-small cell lung cancer) [12] [µg/mL]	other results
CCCCCN(CCc1c2c(nc3ccccc13)-c1cc3c(c(=O)n1C2)COC(=O)[C@]3(O)CC)C(=O)CNC(=O)[C@H](CC(N)=O)NC(=O)[C@H](C)NC(=O)[C@H](C)NC(=O)CCOCCOCCOCCOCCOCCOCCNC(=O)CCN1C(=O)C=CC1=O [MI-6PEG-AANG-D4] ({Propanoyl(3-maleimido)-PEG6}-AANG-X6)	+27%	1305.6	1081.87	+26%	994.5	842.80	72.4	86.7	+40%	870.11	963.7	+18%	544.80	603.4	67.2	80.7	350	2.4	78.7	6.37 (≈ 5.05 µM)	A2780 (ovarian cancer) mean tumor volume (mm^3) Day 1 ([5]; Day 1): 138.58 mm^3; A2780 (ovarian cancer) mean tumor volume (mm^3) Day 4 ([5]; Day 4): 278.49 mm^3; A2780 (ovarian cancer) mean tumor volume (mm^3) Day 7 ([5]; Day 7): 624.53 mm^3; A2780 (ovarian cancer) mean tumor volume (mm^3) Day 10 ([5]; Day 10): 791.18 mm^3; A2780 (ovarian cancer) mean tumor volume (mm^3) Day 14 ([5]; Day 14): 977.54 mm^3; Growth rate (%) of A2780 (ovarian cancer) on Day 14 ([5]; Day 14): 705.40%; Mouse weight (%) on Day 14 ([5]; Day 14): +9.6%; SJSA-1 (sarcoma tissue) mean tumor volume (mm^3) Day 1 ([6]; Day 1): 131.57 mm^3; SJSA-1 (sarcoma tissue) mean tumor volume (mm^3) Day 4 ([6]; Day 4): 385.46 mm^3; SJSA-1 (sarcoma tissue) mean tumor volume (mm^3) Day 7 ([6]; Day 7): 607.62 mm^3; SJSA-1 (sarcoma tissue) mean tumor volume (mm^3) Day 10 ([6]; Day 10): 847.33 mm^3; Mouse weight (%) on Day 14 ([6]; Day 14): +4.1%; SJSA-1 (sarcoma tissue) growth rate (%) on Day 14 ([6]; Day 14): 941.81%; SJSA-1 (sarcoma tissue) mean tumor volume (mm^3) Day 14 ([6]; Day 14): 1239.14 mm^3; IC50 A2780 (ovarian cancer) (A2780 (ovarian cancer)): 4.88 µg/mL (≈ 3.87 µM); IC50 SKBR3 (breast cancer tissue) [13]: 4.54 µg/mL (≈ 3.6 µM); IC50 SJSA-1 (sarcoma tissue) (SJSA-1 (sarcoma tissue)): 2.52 µg/mL (≈ 2 µM)
CC[C@@]1(O)C(=O)OCc2c1cc1n(c2=O)Cc2c-1nc1ccccc1c2CCN(C(=O)CNC(=O)[C@H](Cc1ccccc1)NC(=O)CNC(=O)CNC(=O)CCOCCOCCOCCOCCOCCOCCNC(=O)CCN1C(=O)C=CC1=O)C(C)C [MI-6PEG-GGFG-Belotecan] ({Propanoyl(3-maleimido)-PEG6}-GGFG-Belotecan)	+29%	1453.1	1257.35	+31%	979.5	844.40	83.4	81.5	+27%	1057.73	1171.5	+34%	525.03	581.5	77.3	67.7	180	1.9	72.7	3.61 (≈ 2.92 µM)	Mouse weight (%) [4, 18]: +34%; colo320 (colorectal cancer cell) growth rate (%) [4, 18]: 525.03%; colo320 (colorectal cancer cell) mean tumor volume (mm^3) [4, 18]: 581.5 mm^3; Mouse weight (%) [4, 19]: +34%; colo320 (colorectal cancer cell) growth rate (%) [4, 19]: 525.03%; colo320 (colorectal cancer cell) mean tumor volume (mm^3) [4, 19]: 581.5 mm^3; IC50 A2780 (ovarian cancer) (A2780 (ovarian cancer)): 2.60 µg/mL (≈ 2.1 µM); IC50 SKBR3 (breast cancer tissue) [13]: 6.15 µg/mL (≈ 4.97 µM); IC50 SJSA-1 (sarcoma tissue) (SJSA-1 (sarcoma tissue)): 1.50 µg/mL (≈ 1.21 µM)
CCN(CCc1c2c(nc3ccccc13)-c1cc3c(c(=O)n1C2)COC(=O)[C@]3(O)CC)C(=O)CNC(=O)[C@H](CCCCN)NC(=O)[C@H](C)NC(=O)[C@H](C)NC(=O)CCOCCOCCOCCOCCOCCOCCNC(=O)CCN1C(=O)C=CC1=O [MI-6PEG-AAKG-D2] ({Propanoyl(3-maleimido)-PEG6}-AAKG-{NEt(2-(20S-CPT-7-yl)ethyl)})	+27%	1215.6	980.32	+31%	945.6	791.30	76.6	85.8	+27%	943.33	1044.8	+24%	470.58	521.2	68	69.5	350	1.5	69.8	1.32 (≈ 1.07 µM)	Mouse weight (%) [4, 19]: +24%; colo320 (colorectal cancer cell) growth rate (%) [4, 19]: 470.58%; colo320 (colorectal cancer cell) mean tumor volume (mm^3) [4, 19]: 521.2 mm^3; IC50 A2780 (ovarian cancer) (A2780 (ovarian cancer)): 0.80 µg/mL (≈ 0.649 µM); IC50 SKBR3 (breast cancer tissue) [13]: 2.62 µg/mL (≈ 2.12 µM); IC50 SJSA-1 (sarcoma tissue) (SJSA-1 (sarcoma tissue)): 0.49 µg/mL (≈ 0.397 µM)
